Tests used:
[1] = tested on: BT-474 cells; test: 6-day cell proliferation assay, BT-474; format: cell-based, human; settings: BT-474, proliferation over 6 days
Method: Human breast cancer cell lines MCF7, BT-474, T-47D, MDA-MB-453, MDA-MB-231, Hs 578T, HCC38, SK-BR-3, and DU4475 were purchased from the American Type Culture Collection (ATCC) and no additional cell authentication was performed. The TSE human breast cancer cell line was supplied by Dr. Steven Abcouwer (University of Michigan). All breast cancer cells were cultured at 37° C. under a 5% CO2 atmosphere in RPMI 1640 medium containing 2 mM glutamine (Gibco) and supplemented with 10% fetal bovine serum (FBS) (Gibco). The 293T cell line (ATCC) used for generating lentivirus particles was cultured as above but using DMEM, high glucose (Gibco).
Culture medium was added to 12-well plates (1 ml/well) and wells were seeded with cells at Day 0 as follows. MCF7, T-47D, BT-474, HCC38 cells: […] cells/well. MDA-MB-453 and MDA-MB-231 cells: 1×10^4 cells/well. TSE and Hs 578T cells: 0.3×10^4 cells/well. After 16 hours, culture medium was replaced with fresh medium supplemented with appropriate concentrations of inhibitors and was subsequently replaced every 48 hours. On Day 6 cells were trypsinized and suspended in an appropriate volume of culture medium, and the total number of cells per well was determined using a hemocytometer or a TC20 Automated Cell Counter (Bio-Rad).

[2] = tested on: glutamine-mediated TCA cycle anaplerosis in breast cancer cells; test: [U-13C]-glutamine labeling and metabolite analysis; format: cell-based, human
Method: The procedures for metabolite extraction from cultured cells are described in previous studies (Cluntun et al., “The Rate of Glycolysis Quantitatively Mediates Specific Histone Acetylation Sites,” Cancer Metab. 3:10 (2015); Liu et al., “A Strategy for Sensitive, Large Scale Quantitative Metabolomics,” J. Vis. Exp. e51358-e51358 (2014), which are hereby incorporated by reference in their entirety). Briefly, adherent cells were grown in 6-well plates in biological triplicate to 80% confluence, medium was rapidly aspirated and cells were washed with cold PBS on ice. Then, 1 ml of extraction solvent (80% methanol/water) cooled to −80° C. was added to each well, and the dishes were transferred to −80° C. for 15 min. Cells were then scraped into the extraction solvent on dry ice. All metabolite extracts were centrifuged at 20,000×g at 4° C. for 10 min. Finally, the solvent in each sample was evaporated in a Speed Vacuum. The cell extracts were dissolved in 15 μl water and 15 μl methanol/acetonitrile (1:1 v/v) (LC-MS optima grade, Thermo Fisher Scientific). Samples were centrifuged at 20,000×g for 10 min at 4° C. and the supernatants were transferred to Liquid Chromatography (LC) vials. The injection volume for polar metabolite analysis was 8 μl.
Cells were grown to 80% confluence in 6-well plates with standard culture medium and washed with sterile PBS. Then, culture medium in which glutamine was replaced by [^13C5]-L-glutamine (Cambridge Isotope Laboratories), supplemented with dialyzed FBS (Gibco) and appropriate concentrations of inhibitors was added (1.5 ml/well). At the appropriate time-point, metabolites were extracted as described above.
A hydrophilic interaction liquid chromatography method (HILIC) with an Xbridge amide column (100×2.1 mm, 3.5 μm) (Waters) was employed on a Dionex (Ultimate 3000 UHPLC) for compound separation and detection at room temperature. The mobile phase A was 20 mM ammonium acetate and 15 mM ammonium hydroxide in water with 3% acetonitrile, pH 9.0, and the mobile phase B was acetonitrile. The linear gradient was as follows: 0 min, 85% B; 1.5 min, 85% B, 5.5 min, 35% B; 10 min, 35% B, 10.5 min, 35% B, 14.5 min, 35% B, 15 min, 85% B, and 20 min, 85% B. The flow rate was 0.15 ml/min from 0 to 10 min and 15 to 20 min, and 0.3 ml/min from 10.5 to 14.5 min. All solvents were LCMS grade and purchased from Thermo Fisher Scientific.
The Q Exactive MS (Thermo Scientific) is equipped with a heated electrospray ionization probe (HESI), and the relevant parameters are as listed: evaporation temperature, 120° C.; sheath gas, 30; auxiliary gas, 10; sweep gas, 3; spray voltage, 3.6 kV for positive mode and 2.5 kV for negative mode. Capillary temperature was set at 320° C., and S-lens was 55. A full scan range from 60 to 900 (m/z) was used. The resolution was set at 70,000. The maximum injection time was 200 ms. Automated gain control (AGC) was targeted at 3,000,000 ions.
Raw data collected from LC-Q Exactive MS were processed on Sieve 2.0 (Thermo Scientific) and ToxID 2.0 (Thermo Scientific). Peak alignment and detection were performed according to the protocol described by Thermo Scientific. For targeted metabolite analysis, the method ‘peak alignment and frame extraction’ was applied. An input file of theoretical m/z and detected retention time of 204 known metabolites was used for targeted metabolites analysis with data collected in positive mode, while a separate input file of 278 metabolites was used for negative mode. M/Z width was set at 10 ppm. The output file including detected m/z and relative intensity in different samples was obtained after data processing. The quantity of the metabolite fraction analyzed was adjusted to the corresponding protein concentration and cell count upon processing a parallel 6-well plate. Quantitation and statistics were calculated and visualized with Microsoft Excel, MORPHEUS and MetaboAnalyst online software.

| Compound | EC50 [1] [µM] | supply of glutamine-derived carbon to glutamate and the TCA cycle ([2]; Hs 578T, 10 μM) | glutamine anaplerosis ([2]; MCF7, 10 μM) | supply of glutamine-derived carbon to glutamate and the TCA cycle ([2]; MDA-MB-231, 10 μM) | glutamine-mediated anaplerosis ([2]; MDA-MB-453, 10 μM) | anaplerosis effect compared between cell lines ([2]; 10 μM, MDA-MB-453 versus MDA-MB-231) | total abundance of TCA cycle intermediates ([2]; MDA-MB-231 and MDA-MB-453, 10 μM, different periods of time) | glutamine-mediated TCA cycle anaplerosis ([2]; basal- and luminal-subtype cells, 10 μM, 10, 24 and 72 hours) |
| --- | --- | --- | --- | --- | --- | --- | --- | --- |
| O=C(Cc1ccccc1)Nc1nnc(CCSCCc2nnc(NC(=O)Cc3ccccc3)s2)s1 [BPTES] | ~20 | potently inhibited | partially blocked | potently inhibited | no impact |  |  |  |
| CN(C)c1ccc(C2Nc3ccc4ccccc4c3C3=C2C(=O)CC(C)(C)C3)cc1Br (stereo not drawn) [Compound 968] | 4 |  |  |  |  | more pronounced in MDA-MB-453 cells than MDA-MB-231 cells | decreased | time-dependent inhibition |
